Where two headings read alike, the source gives them in different places.
What was measured:
ruminal microbiota [1] = assay: Ruminal microbial fermentation in vitro (six generations): urea and NH3-N; format: cell-based, rumen fluid of Chinese Holstein dairy cows; settings: 100 μM compound, 24 h, p < 0.01
Description: Seven solutions were prepared for the anaerobic media as solution A (3 g/L K2HPO4), solution B (0.6 g/L CaCl2, 3 g/L K2HPO4, 6 g/L NaCl, 0.6 g/L MgSO4·7H2O), solution C (6 g/L K2HPO4), solution D (1.6 g/L CaCl2·2H2O, 6 g/L K2HPO4, 12 g/L NaCl, 2.5 g/L MgSO4·7H2O), trace element solution (300 mg/L H3BO3, 100 mg/L ZnSO4·7H2O, 30 mg/L MnCl2·4H2O, 20 mg/L CoCl2·6H2O, 30 mg/L Na2MoO4·2H2O, 10 mg/L Na2SeO3, 20 mg/L NiCl2, 10 mg/L CuCl2·2H2O, 150 mg/L FeCl2·4H2O), volatile fatty acid (VFA) mixed solution (17 mL acetic acid, 6 mL propionic acid, 4 mL butyric acid, 1 mL n-valeric acid, 1 mL isovaleric acid, and 1 mL isobutyric acid), and hemin solution, prepared by diluting 50 mg of Haemon in NaOH (1 N solution) and made up to 100 mL with distilled water. Each liter of anaerobic media contained 30 mL of autoclaved rumen fluid supernatant, 0.5 g of glucose, 0.5 g of soluble starch, 0.5 g of cellobiose, 0.5 g of maltose, 0.5 g of […], 0.5 g of tripticase, 0.5 g of yeast extract, 8 g of NaHCO3, 0.1 mL of trace elements solution, 15 mL solution A, 15 mL solution B, 0.5 g of cysteine hydrochloride, 10 mL of hemin solution, 3.1 mL of VFA mixed solution, and 1 mg resazurin. The anaerobic urea solution was prepared using an anaerobic glove box, by dissolving 2.5 g of urea in a 50 mL anaerobic diluent. This diluent consisted of 3.8 mL of salt solution C, 3.8 mL of salt solution D, 5 mL of 8% sodium Na2CO3, 1 mL of 0.1% resazurin, 0.5 g of cysteine hydrochloride dissolved in distilled water and made up to 1000 mL and distributed into 50 mL anaerobic bottles. All the anaerobic bottles were sterilized by autoclave. Prior to the inoculation, fresh frozen rumen fluid samples, pretreated as described previously, were removed from the freezer, thawed, homogenized, and used immediately. […] Chromatographic gradients were referenced to the paper.

H. pylori urease = tested on: H. pylori urease; set-up: method as in PMID 23567958; settings: cited from earlier work
ruminal microbial urease = assay: Urease inhibition assay (Berthelot alkaline phenol-hypochlorite method); format: biochemical, rumen bacteria of Chinese Holstein dairy cows; settings: ruminal microbial urease, 37 °C, 30 min, pH 7.5
Description: Rumen fluid samples were collected from five Chinese Holstein dairy cows with permanent rumen fistula 3 h after feeding a total mixed ration in the morning. All the operations were conducted in accordance with the protocol approved by the Animal Care and Use Committee for Livestock of the Institute of Animal Sciences, Chinese Academy of Agricultural Sciences (Permit Number: IAS2019-14, Permit Date: 22-03-2019). All rumen fluid samples were filtered by a six layer sterilized medical gauze and mixed in a sterilized beaker before being evenly distributed into different 50 mL tubes and stored in liquid nitrogen. The deforested samples were centrifuged at 12,000× g for 10 min at 4 °C, then the supernatant was removed from the tube. The remaining sediments were resuspended in a HEPES buffer solution (pH 7.5, 50 mM) and then centrifuged at 12,000× g for 10 min at 4 °C. The supernatant was discarded and the remaining rumen bacteria were collected and stored at −80 °C for later urease extraction. All the sample handing processes were conducted on an ice bath. […]
In vitro urease inhibition screening assays were conducted to further narrow the virtual screened compounds for further IC50 determination and kinetic characterization. […] The ammonia that was produced was measured using 50 μL of a phenol reagent containing 10.0 g/L phenol and 50 mg/L of sodium nitroprusside, and 50 μL of alkali reagent containing 5 g/L sodium hydroxide and 8.4 mL/L of sodium hypochlorite solution, at 37 °C for 30 min. The absorbance of each well was measured at 625 nm by a micro plate spectrophotometer (Thermo Scientific Varioskan Flash G-282, Thermo Scientific, Waltham, MA, USA). The endogenous nitrogen (blank) was measured by adding a 70 μL HEPES buffer (pH 7.5, 50 mM) containing no urea and 20 μL methanol solution in the first 30 min of the reaction mixture. The 100% initial activity was determined by adding a 15 μL methanol solution in the first 30 min of the reaction mixture. […]

jack bean urease = tested on: jack bean urease; set-up: method as in PMID 17418881; settings: cited from earlier work
Caco-2 cells = assay: CCK8 colorimetric cytotoxicity assay; format: cell-based; settings: concentration below 100 μM, 24 h, p > 0.05
Description: A standard CCK8 colorimetric assay was employed for the evaluation of cytotoxic activity of compound 6238-0047 using 96-well flat bottomed microplates. Dulbecco’s Modified Eagle Medium (GIBCO) with 10% FBS (fetal bovine serum, FBS, Gibco) and 1% NEAA was used for the culturing of Caco-2 cells (ATCC, Manassas, VA, USA), and the medium was supplemented with 100 μg/mL of streptomycin and 100 IU/mL of penicillin. The medium was kept in 5% CO2 and incubated at 37 °C. The exponentially grown cells were harvested, counted using a hemocytometer and diluted with the medium. The cell culture was diluted to a density of 1 × 10^5 cells/mL and transferred into a 96-well plate with 135 μL or […]. The medium was incubated for 24 h for cell attachment. Following this, 15 μL of compounds with different final concentrations of 1, 10, 25, 50, and 100 μM in the experimental group and fresh medium as a control group, were added to a plate with five replicates for each. After 24 h of incubation at 37 °C and kept in 5% CO2, 15 μL of CCK8 was added to each well and after 2 h the absorbance was measured at 450 nm using a microplate reader. The formula for calculating the relative cell viability was as follows:Relative cell viability (%) = absorbance of experimental group/absorbance of control group × 100%

ruminal microbiota [2] = settings: cited from earlier work
[3] = set-up: method as in PMID 19050709; settings: human patients; cited from earlier work
rumen microbiota = tested on: rumen microbiota; set-up: method as in PMID 10682821; settings: cows with permanent rumen fistula, cited from earlier work

SMILES: CC(=O)NO [AHA, acetohydroxamic acid, reference compound]
- Amount of urea degradation vs control group (ruminal microbiota [1]; 16.65 mM urea): significantly lowered the amount of urea degradation
- NH3-N concentration / production vs control group (ruminal microbiota [1]): significantly lower than the control group
- IC50 (H. pylori urease): 18.2 µM
- IC50 (ruminal microbial urease): 158 µM
- IC50 (jack bean urease): 60 µM
- Relative cell viability of Caco-2 cell culture (Caco-2 cells): no significant influence
- AHA degradation (ruminal microbiota [2]): 100%
- Patients with dermatological, neurological or hematological issues necessitating discontinuation of therapy [3]: more than 20%

SMILES: CCCCNP(N)(N)=S [NBPT, N-(n-butyl) thiophosphoric triamide]
- Ruminal ammonia nitrogen production vs control group (rumen microbiota; fifteenth day of treatment): tended to approach the control group
- Ruminal ammonia nitrogen production vs control group (rumen microbiota; second day of treatment): lower than that of the control group

— article PMC7503308, “A Novel Urease Inhibitor of Ruminal Microbiota Screened through Molecular Docking” (International Journal of Molecular Sciences, 2020)
